The source of these data is patent publication US7160874B2, “Phenylalanine derivatives” (Ajinomoto Co., Inc., priority 1999, dated 2007).

Structures are written as SMILES.

For one assay, the target named is T1, integrin α4β1 (Homo sapiens, UniProt P05556+P13612).
T1 construct: cell strain Jurkat (ATCC TIB-152) of human T cells, known to express integrin α4β1; host or cells: Jurkat (human T cell line)
Kind of assay: VCAM antagonist activity (VCAM-1/α4β1 binding assay). Type of assay: cell-based. The note with it: Jurkat cells binding to VCAM-1; read-out: VCAM antagonistic activity (IC50) α4β1. As to the method:
(Test Example) VCAM Antagonist Activity (VCAM-1/α4β1 Binding Assay):
The capacity of a test substance antagonistic to the binding of cell strain Jurkat (ATCC TIB-152) of human T cells, known to express integrin α4β1, to VCAM-1 was determined.
(§1) 100 μl/well of a solution (500 ng/ml) of recombinant human VCAM-1 (R & D systems) solution diluted with buffer A (0.1 M NaHCO3, pH 9.6) was added to a micro titer plate having 96 wells (Nunc Maxisorp). After the incubation at 4° C. overnight, unbound VCAM-1 was removed by washing once with PBS. After completion of the washing, a buffer (buffer B) obtained by diluting Block Ace® (Dainippon Pharmaceutical Co., Ltd.) with PBS to 1/4 concentration was added in an amount of 150 μl/well. After the incubation at room temperature for 1 hour, buffer B was removed and the plate was washed with PBS once.
Jurkat cells were washed with Dulbecco modified Eagle medium (SIGMA, hereinafter referred to as “DMEM”) twice and then incubated in DMEM containing 10 μg/ml of Calcein-AM (Wako Pure Chemical Industries, Ltd.) at 37° C. in dark place for 30 minutes to label with fluorescence. The cells were again suspended in a binding buffer (20 mM HEPES, DMEM containing 0.1% BSA).
(§2) 50 μl of a test substance of various concentrations obtained by the dilution with the binding buffer was added to the plate. Immediately thereafter, 50 μl (final volume: 100 μl/well) of the fluorescent Jurkat cells (4×10^6 cells/ml) were added thereto, and they were incubated at room temperature for 30 minutes. After the shaking on a plate shaker (IKA MTS-4) at 800 rpm for 30 seconds, the solution was immediately removed to remove the unbound cells. The fluorescence quantity of the bound cells remaining in the wells was determined with a fluorescent plate reader (Wallac 1420 ARVO multi-label counter) (filter excitation wave length: 485 nm, emission wave length: 535 nm). The fluorescent strength thus obtained is proportional to the number of Jurkat cells bound to VCAM-1 and remaining on the plate. The binding rate of each test material in various concentrations was determined while the fluorescent strength of the test material-free well was determined to be 100%. The concentration IC50 for the 50% binding inhibition was calculated.
(§3) The activities were classified into group A wherein IC50 was 0.02 μmol/l or below, group B wherein IC50 was higher than 0.02 μmol/l and not above 0.1 μmol/l, group C wherein IC50 was higher than 0.1 μmol/l and not above 2 μmol/l, and group D wherein IC50 was higher than 2 μmol/l and not above 10 μmol/l.

For another assay, the target named is T2, integrin α4β7 (Homo sapiens, UniProt P13612+P26010).
T2 construct: lymphoma cell strain RPMI-8866 of human B cells, known to express integrin α4β7; endogenous in cells; host or cells: RPMI-8866 (human B lymphoma cell line)
T2 sequence (P13612 34-1032): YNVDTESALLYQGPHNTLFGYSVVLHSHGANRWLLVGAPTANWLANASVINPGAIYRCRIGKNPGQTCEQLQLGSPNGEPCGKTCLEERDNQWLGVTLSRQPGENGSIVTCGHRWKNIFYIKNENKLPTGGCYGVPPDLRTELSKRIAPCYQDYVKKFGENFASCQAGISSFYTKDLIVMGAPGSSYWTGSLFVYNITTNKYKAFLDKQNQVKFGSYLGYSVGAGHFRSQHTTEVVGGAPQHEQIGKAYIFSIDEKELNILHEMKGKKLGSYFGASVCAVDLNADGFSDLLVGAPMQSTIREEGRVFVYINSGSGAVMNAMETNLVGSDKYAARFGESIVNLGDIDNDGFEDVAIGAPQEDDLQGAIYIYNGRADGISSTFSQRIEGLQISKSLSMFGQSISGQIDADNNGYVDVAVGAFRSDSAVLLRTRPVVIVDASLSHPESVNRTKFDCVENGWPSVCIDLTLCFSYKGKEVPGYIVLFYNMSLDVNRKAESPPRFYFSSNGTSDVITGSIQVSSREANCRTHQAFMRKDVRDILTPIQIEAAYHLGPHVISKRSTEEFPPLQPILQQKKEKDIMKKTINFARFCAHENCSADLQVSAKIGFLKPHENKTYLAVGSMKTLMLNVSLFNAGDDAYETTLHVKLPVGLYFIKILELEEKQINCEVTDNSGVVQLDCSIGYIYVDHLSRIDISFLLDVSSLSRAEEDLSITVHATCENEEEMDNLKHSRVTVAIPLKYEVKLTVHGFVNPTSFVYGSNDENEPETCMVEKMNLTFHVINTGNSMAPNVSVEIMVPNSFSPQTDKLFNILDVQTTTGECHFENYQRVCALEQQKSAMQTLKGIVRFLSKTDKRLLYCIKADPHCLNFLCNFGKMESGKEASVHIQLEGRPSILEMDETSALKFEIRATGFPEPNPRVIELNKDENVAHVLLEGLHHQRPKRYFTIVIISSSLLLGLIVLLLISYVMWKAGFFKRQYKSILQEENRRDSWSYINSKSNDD
T2 sequence (P26010 20-798): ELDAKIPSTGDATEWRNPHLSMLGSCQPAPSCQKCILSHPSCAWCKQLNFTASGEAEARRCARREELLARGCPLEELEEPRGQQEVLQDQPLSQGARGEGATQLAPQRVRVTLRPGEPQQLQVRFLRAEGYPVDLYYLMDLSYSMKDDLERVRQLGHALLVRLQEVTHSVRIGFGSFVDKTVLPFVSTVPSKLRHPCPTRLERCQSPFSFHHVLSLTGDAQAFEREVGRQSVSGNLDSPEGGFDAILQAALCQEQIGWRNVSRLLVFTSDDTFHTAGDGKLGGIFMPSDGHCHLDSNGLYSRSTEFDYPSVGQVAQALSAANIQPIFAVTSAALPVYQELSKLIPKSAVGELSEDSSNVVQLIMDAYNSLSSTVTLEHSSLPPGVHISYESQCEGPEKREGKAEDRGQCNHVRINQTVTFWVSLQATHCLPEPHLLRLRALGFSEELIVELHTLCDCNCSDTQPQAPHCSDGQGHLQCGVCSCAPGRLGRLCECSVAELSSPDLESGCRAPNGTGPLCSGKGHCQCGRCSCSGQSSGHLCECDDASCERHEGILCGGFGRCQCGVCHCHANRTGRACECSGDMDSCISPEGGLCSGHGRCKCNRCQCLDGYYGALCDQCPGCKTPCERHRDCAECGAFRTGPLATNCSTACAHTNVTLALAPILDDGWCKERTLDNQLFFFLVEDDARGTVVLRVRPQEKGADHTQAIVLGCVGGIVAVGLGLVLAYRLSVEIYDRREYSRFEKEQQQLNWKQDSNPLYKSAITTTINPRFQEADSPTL
The experiment in a line: VCAM antagonistic activity (VCAM-1/α4β7 binding assay). The format is cell-based. The note with it: RPMI-8866 cells binding to VCAM-1; read-out: VCAM antagonistic activity (IC50) α4β7. As to the method: (Test Example) VCAM Antagonistic Activity (VCAM-1/α4β7 Binding Assay):
The capacity of a test substance antagonistic to the binding of lymphoma cell strain RPMI-8866 of human B cells, known to express integrin α4β7, to VCAM-1 was determined.
as §1
RPMI-8866 cells were incubated in Dulbecco modified Eagle medium containing 10 μg/ml of Calcein-AM (Wako Pure Chemical Industries, Ltd.) (SIGMA, hereinafter referred to as “DMEM”) at 37° C. for 30 minutes to label with fluorescence. The cells were again suspended in a binding buffer (20 mM HEPES, DMEM containing 0.1% BSA) containing 4 mM of MnCl2.
as §2, with “RPMI-8866” for “Jurkat”
as §3

T1 sequence (P05556 21-798, one chain of several): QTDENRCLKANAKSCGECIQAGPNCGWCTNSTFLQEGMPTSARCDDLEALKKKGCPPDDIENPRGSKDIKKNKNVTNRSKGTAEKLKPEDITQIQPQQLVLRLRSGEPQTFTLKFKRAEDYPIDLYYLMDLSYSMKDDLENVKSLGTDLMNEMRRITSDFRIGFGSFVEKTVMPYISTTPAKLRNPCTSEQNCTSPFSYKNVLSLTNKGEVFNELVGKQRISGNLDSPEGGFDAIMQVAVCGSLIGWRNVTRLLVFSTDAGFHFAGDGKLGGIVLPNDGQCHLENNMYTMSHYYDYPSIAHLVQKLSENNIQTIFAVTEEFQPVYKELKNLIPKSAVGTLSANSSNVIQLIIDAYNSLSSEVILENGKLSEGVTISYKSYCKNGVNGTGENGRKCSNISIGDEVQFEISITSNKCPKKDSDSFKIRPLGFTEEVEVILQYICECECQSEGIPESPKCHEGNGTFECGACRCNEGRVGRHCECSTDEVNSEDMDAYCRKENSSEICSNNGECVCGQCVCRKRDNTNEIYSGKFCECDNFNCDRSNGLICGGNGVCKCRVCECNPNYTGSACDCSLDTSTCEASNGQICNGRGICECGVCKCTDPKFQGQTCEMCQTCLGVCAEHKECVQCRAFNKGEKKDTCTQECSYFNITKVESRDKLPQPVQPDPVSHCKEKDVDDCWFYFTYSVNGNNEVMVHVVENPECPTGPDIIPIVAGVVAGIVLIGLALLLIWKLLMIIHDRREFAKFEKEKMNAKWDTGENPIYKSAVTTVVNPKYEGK

Usually IC50 stands for the concentration at which inhibition is half-maximal. With `CCC(CC)(C(=O)Nc1ccc(O)cc1)C(=O)N[C@@H](Cc1ccc(OCc2c(Cl)cccc2Cl)cc1)C(=O)O` [Example 5], the IC50 on integrin α4β1 and at integrin α4β7 was 100 to 2000 nM throughout.
For `CN(C)C(=O)C1(C(=O)N[C@@H](Cc2ccc(NC(=O)c3cc(Br)ccc3Br)cc2)C(=O)O)CC1` [Example 88], the IC50 at integrin α4β1 and at integrin α4β7 was 100 to 2000 nM in each case.
In the case of `CCC(CC)(C(=O)N[C@@H](Cc1ccc(NC(=O)c2nc(SC)ncc2Br)cc1)C(=O)O)C(=O)N1CCCC1` [Example 477], the IC50 was 20 to 100 nM at integrin α4β1 and less than 20 nM at integrin α4β7.
For `CCC(CC)(C(=O)N[C@@H](Cc1ccc(OCc2c(Cl)cccc2Cl)cc1)C(=O)O)C(=O)N1CCCCC1` [Example 17] the same measures were 100 to 2000 nM and 100 to 2000 nM.
For `CCC(CC)(C(=O)N[C@@H](Cc1ccc(NC(=O)c2c(F)cccc2C(F)(F)F)cc1)C(=O)O)C(=O)N1CCCC1` [Example 92, N-(2-pyrrolidine-1-ylcarbonyl-2-ethyl-butanoyl)-4-({[2-fluoro-6-(trifluoromethyl)phenyl]carbonyl}amino)-L-phenylalanine] the same measures were 20 to 100 nM and less than 20 nM.
For `CCCC(CC)(C(=O)NC(Cc1ccc(OCc2c(Cl)cccc2Cl)cc1)C(=O)O)C(=O)N1CCCC1` (mixture of isomers) [Example 37] the same measures were 2000 to 10000 nM and 20 to 100 nM.
In the case of `CCC(CC)(C(=O)N[C@@H](Cc1ccc(OCc2c(Cl)cccc2Cl)cc1)C(=O)O)C(=O)N1CC(O)C(Cl)C1` (stereo partly drawn) [Example 82], the IC50 on integrin α4β1 is 20 to 100 nM; on integrin α4β7, less than 20 nM.
For `CCC(CC)(C(=O)N[C@@H](Cc1ccc(-n2c(=O)c3ccccc3n(Cc3ccc4ccccc4c3)c2=O)cc1)C(=O)O)C(=O)N1CCCC1` [Example 100] the same measures were 100 to 2000 nM and 20 to 100 nM.
Take `CN(C(=O)C1(C(=O)N[C@@H](Cc2ccc(OCc3c(Cl)cccc3Cl)cc2)C(=O)O)CC1)c1ccccc1` [Example 23]: the IC50 was in the range of 2000 to 10000 nM on integrin α4β1 and 100 to 2000 nM at integrin α4β7.
With `CCC(CC)(C(=O)N[C@@H](Cc1ccc(OCc2c(Cl)cccc2Cl)cc1)C(=O)O)C(=O)N1CCC[C@H]1C(N)=O` [Example 67], the IC50 lay in the range of 100 to 2000 nM on integrin α4β1 and 20 to 100 nM on integrin α4β7.
For `CCC(CC)(C(=O)N[C@@H](Cc1ccc(NC(=O)c2nc(NC)ncc2Cl)cc1)C(=O)O)C(=O)N1CCCC1` [Example 484] the same measures were 20 to 100 nM and less than 20 nM.
For `CCC(CC)(C(=O)N[C@@H](Cc1ccc(NC(=O)c2nc(N3CCCC3)ncc2Cl)cc1)C(=O)O)C(=O)N1CCCC1` [Example 481] the same measures were 20 to 100 nM and less than 20 nM.
In the case of `CCC(CC)(C(=O)N[C@@H](Cc1ccc(NC(=O)c2nc([S+](C)[O-])ncc2Cl)cc1)C(=O)O)C(=O)N1CCCC1` (stereo partly drawn) [Example 478, N-[2-(pyrrolidine-1-ylcarbonyl)-2-ethyl-butanoyl]-4-({[5-chloro-2-(methylsulfinyl)pyrimidine-4-yl]carbonyl}amino)-L-phenyl-alanine], the IC50 is 20 to 100 nM on integrin α4β1 and less than 20 nM on integrin α4β7.
For `CCC(CC)(C(=O)N[C@@H](Cc1ccc(NC(=O)c2nc(N3CCCCC3)ncc2Cl)cc1)C(=O)O)C(=O)N1CCCC1` [Example 482] the same measures were 100 to 2000 nM and less than 20 nM.
As to `CCC(CC)(C(=O)N[C@@H](Cc1ccc(OCc2c(Cl)cccc2Cl)cc1)C(=O)O)C(=O)N1CCC[C@@H]1C(N)=O` [Example 70], the results for the IC50 at integrin α4β1 and on integrin α4β7 were 20 to 100 nM and less than 20 nM, respectively.
For `CCC(CC)(C(=O)N[C@@H](Cc1ccc(OCc2c(Cl)cccc2Cl)cc1)C(=O)O)C(=O)N1CCC(O)CC1` [Example 49] the same measures were 100 to 2000 nM and 20 to 100 nM.
Turning to `CCC(CC)(C(=O)N[C@@H](Cc1ccc(OCc2c(Cl)cccc2Cl)cc1)C(=O)O)C(=O)N1CCN(c2ccc(O)cc2)CC1` [Example 7], the IC50 at integrin α4β1 and on integrin α4β7 was 100 to 2000 nM in each case.
As for `CCC(CC)(C(=O)N[C@@H](Cc1ccc(OCc2c(Cl)cccc2Cl)cc1)C(=O)O)C(=O)N1CCC1` [Example 78], the IC50 at integrin α4β1 is 100 to 2000 nM; on integrin α4β7, less than 20 nM.
